Experimental data taken from PubChem BioAssay AID1259407 (Chemical Carcinogenesis Research Information System (CCRIS), 2018).
Active and inactive are the calls of the source. How the calls were made is not given here.

Test system: CCRIS mutagenicity, Ames/micronucleus/aberration tests
Test: CCRIS mutagenicity studies
[1] = Test System: AMES SALMONELLA TYPHIMURIUM, Strain/Indicator: TA98, Metabolic Activation: NONE, Method: PREINCUBATION
[2] = Test System: AMES SALMONELLA TYPHIMURIUM, Strain/Indicator: TA98, Metabolic Activation: NONE, Method: STANDARD PLATE
[3] = Test System: AMES SALMONELLA TYPHIMURIUM, Strain/Indicator: TA100, Metabolic Activation: NONE, Method: STANDARD PLATE
[4] = Test System: AMES SALMONELLA TYPHIMURIUM, Strain/Indicator: TA98, Metabolic Activation: RAT LIVER S-9, AROCLOR 1254, Method: STANDARD PLATE
[5] = Test System: AMES SALMONELLA TYPHIMURIUM, Strain/Indicator: TA100, Metabolic Activation: RAT LIVER S-9, AROCLOR 1254, Method: STANDARD PLATE
[6] = Test System: AMES SALMONELLA TYPHIMURIUM, Strain/Indicator: TA100, Metabolic Activation: NONE, Method: PREINCUBATION

Oc1ccc2ccc3cc4ccccc4c4ccc1c2c34
mutagenic call [1]: inactive; negative
mutagenic call (Test System: AMES SALMONELLA TYPHIMURIUM, Strain/Indicator: TA98, Metabolic Activation: RAT, LIVER, S-9, AROCLOR 1254, Method: PREINCUBATION): active; positive
mutagenic call (Test System: AMES SALMONELLA TYPHIMURIUM, Strain/Indicator: TA98, Metabolic Activation: RAT, LUNG, S-9, Method: PREINCUBATION): active; positive
mutagenic call (Test System: CHINESE HAMSTER V-79, Strain/Indicator: V-79/8-AZAGUANINE, Metabolic Activation: NONE, Method: STANDARD PLATE): active; positive
mutagenic call (Test System: CHINESE HAMSTER V-79, Strain/Indicator: V-79/OUABAIN, Metabolic Activation: NONE, Method: STANDARD PLATE): active; positive

CCCCN(CCC)N=O
mutagenic call (Test System: AMES SALMONELLA TYPHIMURIUM, Strain/Indicator: TA100, Metabolic Activation: RAT, LIVER, S-9, KC500 OR PHENOBARBITAL, Method: LIQUID SUSPENSION): active; positive
mutagenic call (Test System: MOUSE LYMPHOMA, Strain/Indicator: L5178Y (TK+/TK-), Metabolic Activation: RAT, LIVER, S-9, AROCLOR 1254, Method: SUSPENSION/PLATE): active; positive

Nc1nc2c(ncn2COCCO)c(=O)[nH]1
mutagenic call (End Point: IN VITRO CHROMOSOMAL ABERRATIONS, Test System: CHO CELLS (CHO-HSVTK), Metabolic Activation: NONE): active; positive (structural changes); concentration chosen also induced apoptosis

COc1ccc(-c2nc(-c3ccc(C)cc3C)[nH]c2-c2ccc(OC)cc2)cc1
mutagenic call [2]: active; positive
mutagenic call (Test System: AMES SALMONELLA TYPHIMURIUM, Strain/Indicator: TA98, Metabolic Activation: RAT LIVER S-9, 3-METHYLCHOLANTHRENE, SODIUM PHENOBARBITAL, Method: STANDARD PLATE): inactive; negative
mutagenic call [3]: active; positive
mutagenic call (Test System: AMES SALMONELLA TYPHIMURIUM, Strain/Indicator: TA100, Metabolic Activation: RAT LIVER S-9, 3-METHYLCHOLANTHRENE, SODIUM PHENOBARBITAL, Method: STANDARD PLATE): inactive; negative

OC1=C2O[C@@H]2CC[C@H]1O
mutagenic call (Test System: CHINESE HAMSTER V-79, Strain/Indicator: V-79/6-THIOGUANINE, Metabolic Activation: NONE): active; positive

CC[C@H](c1ccc(O)cc1)[C@@H](CC)c1ccc(O)cc1
mutagenic call (End Point: IN VITRO CHROMOSOMAL ABERRATIONS, Test System: CHINESE HAMSTER CELL DON (22;XY), Metabolic Activation: NONE): active; positive (ploidy changes)
mutagenic call [2]: inactive; negative
mutagenic call (Test System: AMES SALMONELLA TYPHIMURIUM, Strain/Indicator: TA98, Metabolic Activation: RAT, LIVER, S-9, Method: STANDARD PLATE): inactive; negative
mutagenic call [3]: inactive; negative
mutagenic call (Test System: AMES SALMONELLA TYPHIMURIUM, Strain/Indicator: TA100, Metabolic Activation: RAT, LIVER, S-9, Method: STANDARD PLATE): inactive; negative
mutagenic call (Test System: AMES SALMONELLA TYPHIMURIUM, Strain/Indicator: TA1535, Metabolic Activation: NONE, Method: STANDARD PLATE): inactive; negative; toxicity at 50 ug/plate
mutagenic call (Test System: AMES SALMONELLA TYPHIMURIUM, Strain/Indicator: TA1535, Metabolic Activation: RAT, LIVER, S-9, Method: STANDARD PLATE): inactive; negative; toxicity at 100 ug/plate
mutagenic call (Test System: AMES SALMONELLA TYPHIMURIUM, Strain/Indicator: TA1537, Metabolic Activation: NONE, Method: STANDARD PLATE): inactive; negative; toxicity at 100 ug/plate
mutagenic call (Test System: AMES SALMONELLA TYPHIMURIUM, Strain/Indicator: TA1537, Metabolic Activation: RAT, LIVER, S-9, Method: STANDARD PLATE): inactive; negative
mutagenic call (Test System: AMES SALMONELLA TYPHIMURIUM, Strain/Indicator: TA1538, Metabolic Activation: NONE, Method: STANDARD PLATE): inactive; negative
mutagenic call (Test System: AMES SALMONELLA TYPHIMURIUM, Strain/Indicator: TA1538, Metabolic Activation: RAT, LIVER, S-9, Method: STANDARD PLATE): inactive; negative; toxicity at 100 ug/plate
mutagenic call (Test System: UDS RAT HEPATOCYTES, Strain/Indicator: THY INCORP (18-20 HR), Metabolic Activation: NONE, Method: LIQUID SCINTILLATION COUNTING): inactive; negative

COC1=CC(=O)c2c(nc(C)c3c2[nH]c2ccccc23)C1=O
mutagenic call (Test System: AMES SALMONELLA TYPHIMURIUM, Strain/Indicator: TA97, Metabolic Activation: NONE, Method: STANDARD PLATE): active; positive
mutagenic call (Test System: AMES SALMONELLA TYPHIMURIUM, Strain/Indicator: TA97, Metabolic Activation: RAT, LIVER, S-9, AROCLOR 1254, Method: STANDARD PLATE): active; positive
mutagenic call (Test System: AMES SALMONELLA TYPHIMURIUM, Strain/Indicator: TA97A, Metabolic Activation: NONE, Method: STANDARD PLATE): active; positive
mutagenic call (Test System: AMES SALMONELLA TYPHIMURIUM, Strain/Indicator: TA97A, Metabolic Activation: RAT LIVER S-9, AROCLOR 1254, Method: STANDARD PLATE): active; positive
mutagenic call [2]: active; positive
mutagenic call [4]: active; positive
mutagenic call (Test System: AMES SALMONELLA TYPHIMURIUM, Strain/Indicator: TA98, Metabolic Activation: RAT, LIVER, S-9, AROCLOR 1254, Method: STANDARD PLATE): active; positive
mutagenic call [3]: active; positive
mutagenic call [5]: active; positive
mutagenic call (Test System: AMES SALMONELLA TYPHIMURIUM, Strain/Indicator: TA100, Metabolic Activation: RAT, LIVER, S-9, AROCLOR 1254, Method: STANDARD PLATE): active; positive
mutagenic call (Test System: AMES SALMONELLA TYPHIMURIUM, Strain/Indicator: TA102, Metabolic Activation: RAT LIVER S-9, AROCLOR 1254, Method: STANDARD PLATE): inactive; negative
mutagenic call (Test System: AMES SALMONELLA TYPHIMURIUM, Strain/Indicator: TA102, Metabolic Activation: RAT, LIVER, S-9, AROCLOR 1254, Method: STANDARD PLATE): inactive; negative

O=S(=O)(O)c1ccc(N=Nc2c(O)ccc3ccccc23)cc1
mutagenic call (Test System: AMES SALMONELLA TYPHIMURIUM, Strain/Indicator: TA98, Metabolic Activation: HAMSTER, LIVER, S-9, Method: PREINCUBATION (PRIVAL METHOD)): inactive; negative
mutagenic call [1]: inactive; negative
mutagenic call [2]: inactive; negative
mutagenic call [4]: inactive; negative
mutagenic call (Test System: AMES SALMONELLA TYPHIMURIUM, Strain/Indicator: TA98, Metabolic Activation: RAT, LIVER, S-9, PHENOBARBITAL, Method: PREINCUBATION): inactive; negative
mutagenic call [6]: inactive; negative
mutagenic call [3]: inactive; negative
mutagenic call [5]: inactive; negative
mutagenic call (Test System: AMES SALMONELLA TYPHIMURIUM, Strain/Indicator: TA100, Metabolic Activation: RAT, LIVER, S-9, PHENOBARBITAL, Method: PREINCUBATION): inactive; negative

[Cl][Sb]([Cl])([Cl])([Cl])[Cl]
mutagenic call [1]: inactive; negative
mutagenic call (Test System: AMES SALMONELLA TYPHIMURIUM, Strain/Indicator: TA98, Metabolic Activation: RAT, LIVER, S-9 (10%), Method: PREINCUBATION): inactive; negative
mutagenic call [6]: inactive; negative
mutagenic call (Test System: AMES SALMONELLA TYPHIMURIUM, Strain/Indicator: TA100, Metabolic Activation: RAT, LIVER, S-9 (10%), Method: PREINCUBATION): inactive; negative

O=C(O)/C(Cl)=C(/CCl)C(=O)O
mutagenic call [1]: inactive; negative
mutagenic call [6]: inactive; negative
mutagenic call (Test System: AMES SALMONELLA TYPHIMURIUM, Strain/Indicator: TA104, Metabolic Activation: NONE, Method: PREINCUBATION): inactive; negative
